These molecules were tested against T1, recombinant human GST-SYK (Homo sapiens, UniProt P43405) (assay: Homogeneous Time-Resolved Fluorescence (HTRF) assay for the recombinant human Syk enzyme). Conditions: HTRF assay, recombinant human GST-SYK; IC50 given as class symbols; read-out: rhSYK Activity.
T1 construct: purchased Carna Biosciences 08-176
Format: biochemical
Outline: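 Phosphotyrosine product from a biotinylated Syk substrate peptide was detected by HTRF (europium antibody/SA-APC, read after 30 min) following a 45-minute room-temperature reaction at 25 μM ATP, with […] preincubated 10 minutes with inhibitor.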

IC50, < 100 nM:
Cc1cc(Nc2nccc(C(F)(F)F)n2)cc(-c2ccc(C(=O)N3CCOC(CCO)C3)nc2)c1 (centres unmarked) [Example 16.37, 2-(4-{[5-(3-methyl-5-{[4-(trifluoromethyl)pyrimidin-2-yl]amino}phenyl)pyridin-2-yl]carbonyl}morpholin-2-yl)ethanol]
COCC1CN(C(=O)c2ccc(-c3cc(C)cc(Nc4nccc(C(F)(F)F)n4)c3)cn2)CCO1 (centres unmarked) [Example 16.39, N-[3-(6-{[2-(methoxymethyl)morpholin-4-yl]carbonyl}pyridin-3-yl)-5-methylphenyl]-4-(trifluoromethyl)pyrimidin-2-amine]
Cc1cc(Nc2nccc(C(F)(F)F)n2)cc(-c2ccc(C(=O)N3C[C@H]4C[C@@H]3CO4)nc2)c1 [Example 16.40, N-(3-methyl-5-{6-[(1R,4R)-2-oxa-5-azabicyclo[2.2.1]hept-5-ylcarbonyl]pyridin-3-yl}phenyl)-4-(trifluoromethyl)pyrimidin-2-amine]
Cc1cc(Nc2nccc(C(F)(F)F)n2)cc(-c2ccc(C(=O)N3C[C@H](O)C[C@H]3C)nc2)c1 [Example 16.41, (3R,5R)-5-methyl-1-{[5-(3-methyl-5-{[4-(trifluoromethyl)pyrimidin-2-yl]amino}phenyl)pyridin-2-yl]carbonyl}pyrrolidin-3-ol]
Cc1cc(Nc2nccc(C(F)(F)F)n2)cc(-c2ccc(C(=O)N3CCC(C)(O)C3)nc2)c1 (centres unmarked) [Example 16.42, 3-methyl-1-{[5-(3-methyl-5-{[4-(trifluoromethyl)pyrimidin-2-yl]amino}phenyl)pyridin-2-yl]carbonyl}pyrrolidin-3-ol]
Cc1cc(Nc2nccc(C(F)(F)F)n2)cc(-c2ccc(C(=O)N3CC[C@H](CO)C3)nc2)c1 [Example 16.43, [(3S)-1-{[5-(3-methyl-5-{[4-(trifluoromethyl)pyrimidin-2-yl]amino}phenyl)pyridin-2-yl]carbonyl}pyrrolidin-3-yl]methanol]
Cc1cc(Nc2nccc(C(F)(F)F)n2)cc(-c2ccc(C(=O)N3CCCC34CCNC4=O)nc2)c1 (centres unmarked) [Example 16.44, 1-{[5-(3-methyl-5-{[4-(trifluoromethyl)pyrimidin-2-yl]amino}phenyl)pyridin-2-yl]carbonyl}-1,7-diazaspiro[4.4]nonan-6-one]
COCC(O)CNC(=O)c1ccc(-c2cc(C)cc(Nc3nccc(C(F)(F)F)n3)c2)cn1 (centres unmarked) [Example 16.45, N-(2-hydroxy-3-methoxypropyl)-5-(3-methyl-5-{[4-(trifluoromethyl)pyrimidin-2-yl]amino}phenyl)pyridine-2-carboxamide]
Cc1cc(Nc2nccc(C(F)(F)F)n2)cc(-c2ccc(C(=O)N3CCCC(C)(O)C3)nc2)c1 (centres unmarked) [Example 16.47, 3-methyl-1-{[5-(3-methyl-5-{[4-(trifluoromethyl)pyrimidin-2-yl]amino}phenyl)pyridin-2-yl]carbonyl}piperidin-3-ol]
Cc1cc(Nc2nccc(C(F)(F)F)n2)cc(-c2ccc(C(=O)N3CCC(C)(O)CC3)nc2)c1 [Example 16.48, 4-methyl-1-{[5-(3-methyl-5-{[4-(trifluoromethyl)pyrimidin-2-yl]amino}phenyl)pyridin-2-yl]carbonyl}piperidin-4-ol]
Cc1cc(Nc2nccc(C(F)(F)F)n2)cc(-c2ccc(C(=O)N3CC[S+]([O-])CC3)nc2)c1 [Example 16.49, N-(3-methyl-5-{6-[(1-oxidothiomorpholin-4-yl)carbonyl]pyridin-3-yl}phenyl)-4-(trifluoromethyl)pyrimidin-2-amine]
Cc1cc(Nc2nccc(C(F)(F)F)n2)cc(-c2ccc(C(=O)NCCS(N)(=O)=O)nc2)c1 [Example 16.50, 5-(3-methyl-5-{[4-(trifluoromethyl)pyrimidin-2-yl]amino}phenyl)-N-(2-sulfamoylethyl)pyridine-2-carboxamide]
Cc1cc(Nc2nccc(C(F)(F)F)n2)cc(-c2ccc(C(=O)N(C)Cc3n[nH]c(=O)[nH]3)nc2)c1 [Example 16.51, N-methyl-5-(3-methyl-5-{[4-(trifluoromethyl)pyrimidin-2-yl]amino}phenyl)-N-[(5-oxo-4,5-dihydro-1H-1,2,4-triazol-3-yl)methyl]pyridine-2-carboxamide]
Cc1cc(Nc2nccc(C(F)(F)F)n2)cc(-c2ccc(C(=O)N3CCC[S+]([O-])CC3)nc2)c1 (centres unmarked) [Example 16.52, N-(3-methyl-5-{6-[(1-oxido-1,4-thiazepan-4-yl)carbonyl]pyridin-3-yl}phenyl)-4-(trifluoromethyl)pyrimidin-2-amine]
Cc1cc(Nc2nccc(C(F)(F)F)n2)cc(-c2ccc(C(=O)NC3CCS(=O)(=O)C3)nc2)c1 (centres unmarked) [Example 16.54, N-(1,1-dioxidotetrahydrothiophen-3-yl)-5-(3-methyl-5-{[4-(trifluoromethyl)pyrimidin-2-yl]amino}phenyl)pyridine-2-carboxamide]
Cc1cc(Nc2nccc(C(F)(F)F)n2)cc(-c2ccc(C(=O)N3CCS(=O)(=O)CC3)nc2)c1 [Example 16.55, N-(3-{6-[(1,1-dioxidothiomorpholin-4-yl)carbonyl]pyridin-3-yl}-5-methylphenyl)-4-(trifluoromethyl)pyrimidin-2-amine]
Cc1cc(Nc2nccc(C(F)(F)F)n2)cc(-c2ccc(C(=O)N(C)CC(O)CO)nc2)c1 (centres unmarked) [Example 16.56, N-(2,3-dihydroxypropyl)-N-methyl-5-(3-methyl-5-{[4-(trifluoromethyl)pyrimidin-2-yl]amino}phenyl)pyridine-2-carboxamide]
CNS(=O)(=O)CCNC(=O)c1ccc(-c2cc(C)cc(Nc3nccc(C(F)(F)F)n3)c2)cn1 [Example 16.57, N-[2-(methylsulfamoyl)ethyl]-5-(3-methyl-5-{[4-(trifluoromethyl)pyrimidin-2-yl]amino}phenyl)pyridine-2-carboxamide]
Cc1cc(Nc2nccc(C(F)(F)F)n2)cc(-c2ccc(C(=O)N(C)CCS(C)(=O)=O)nc2)c1 [Example 16.58, N-methyl-N-[2-(methylsulfonyl)ethyl]-5-(3-methyl-5-{[4-(trifluoromethyl)pyrimidin-2-yl]amino}phenyl)pyridine-2-carboxamide]

IC50, 100 to 1000 nM:
Cc1cc(Nc2nccc(C(F)(F)F)n2)cc(-c2ccc(C(=O)N(C)C(C3CC3)C3CC3)nc2)c1 [Example 16.36, N-(dicyclopropylmethyl)-N-methyl-5-(3-methyl-5-{[4-(trifluoromethyl)pyrimidin-2-yl]amino}phenyl)pyridine-2-carboxamide]
Cc1cc(Nc2nccc(C(F)(F)F)n2)cc(-c2ccc(C(=O)N(C)CC3COCCO3)nc2)c1 (centres unmarked) [Example 16.38, N-(1,4-dioxan-2-ylmethyl)-N-methyl-5-(3-methyl-5-{[4-(trifluoromethyl)pyrimidin-2-yl]amino}phenyl)pyridine-2-carboxamide]
Cc1cc(Nc2nccc(C(F)(F)F)n2)cc(-c2ccc(C(=O)NC(C3CC3)C3CC3)nc2)c1 [Example 16.46, N-(dicyclopropylmethyl)-5-(3-methyl-5-{[4-(trifluoromethyl)pyrimidin-2-yl]amino}phenyl)pyridine-2-carboxamide]
Cc1cc(Nc2nccc(C(F)(F)F)n2)cc(-c2ccc(C(=O)NCc3ncc[nH]3)nc2)c1 [Example 16.53, N-(1H-imidazol-2-ylmethyl)-5-(3-methyl-5-{[4-(trifluoromethyl)pyrimidin-2-yl]amino}phenyl)pyridine-2-carboxamide]
